Experimental data as given in PMC3610872, “Full and Partial Agonists of Thromboxane Prostanoid Receptor Unveil Fine Tuning of Receptor Superactive Conformation and G Protein Activation” (PLoS ONE, 2013).
Positions count from the first letter of the chain named.

Tests used:
WT human TP receptor [1] = target: T1, WT human TP receptor (Homo sapiens, UniProt P21731); test: [3H]SQ29,548 radioligand binding (mixed-type and heterologous competition), WT receptor; conditions: HEK293 cells, competition vs 1 nM [3H]SQ29,548, 25°C 30 min, value ±%CV
T1 construct: expressed in transfected cells; host or cells: HEK293
T1 sequence (P21731 1-343): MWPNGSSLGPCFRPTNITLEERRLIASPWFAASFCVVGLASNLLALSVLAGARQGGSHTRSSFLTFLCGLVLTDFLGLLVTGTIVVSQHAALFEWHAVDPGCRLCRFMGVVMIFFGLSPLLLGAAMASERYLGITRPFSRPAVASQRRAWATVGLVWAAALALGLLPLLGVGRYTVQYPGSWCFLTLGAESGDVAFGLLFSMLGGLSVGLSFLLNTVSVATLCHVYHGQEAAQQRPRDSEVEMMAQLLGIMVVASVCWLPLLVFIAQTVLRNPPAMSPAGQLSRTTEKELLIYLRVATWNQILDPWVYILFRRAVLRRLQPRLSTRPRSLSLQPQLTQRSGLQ
Experimental: (§1) Receptor expression and functional activity were monitored 48 hours after transfection. […] Heterologous competition studies involved concentrations of the indicated unlabeled ligands extending from 0.1 nM to 30 µM. After 30 min incubation at 25 °C, the reaction was stopped by aspiration of the medium, cells were washed with ice-cold PBS containing 0.2% (w/v) BSA and lysed in 0.5 N NaOH. Radioactivity was measured by liquid scintillation counting. Binding data were analyzed as described in Data and Statistical Analysis. Quantification of the total labeled inositol phosphates (IP) accumulation was performed using a conventional gravity flow column chromatography, as described previously, [19]. Briefly, the day before the assay, cells were labeled with 0,5 µCi of [myo-2-^3H]inositol (17 Ci/mmol) for 18–20 hours in serum-free, inositol-free DMEM containing 20 mM HEPES buffer, pH 7.4, and 0.5% (w/v) Albumax I. The day of the assay, media was replaced with serum-free, inositol-free DMEM containing 25 mM LiCl and cells stimulated for 30 min with the indicated agonists. After removal of the medium, cells were lysed with 10 mM formic acid and lysates were applied onto an anion exchange AG 1X-8 column, formate form, 200–400 mesh. The total IP fraction was then eluted with 2 M ammonium formate/formic acid buffer at pH 5 and radioactivity determined by liquid scintillation counting. Rescue experiments were performed essentially as above, except for a 18 hours incubation step with 1 µΜof […] followed by its removal by washing three times with ice-cold PBS containing 1 mM MgCl2 and 0.1 mM CaCl2 before starting the experiment.
(§2) All average results are presented as mean±S.E. When indicated, ANOVA followed by post-hoc test for multiple comparisons was performed. Data from radioligand binding were evaluated by a nonlinear, least-squares curve-fitting procedure using GraphPad Prism version 4, implemented with the n-ligand m-binding site model, as described in the LIGAND computer program. Concentration-response curves were evaluated using Prism 4, which use the four parameters logistic model as described in the ALLFIT program. Parameter errors are all expressed in percentage coefficient of variation (%CV) and calculated by simultaneous analysis of at least two different independent experiments performed in duplicate or triplicate. Parameter comparison has been performed on the base of the F test for extra sum of square principle. All curves shown are computer generated.
Thus, transfection conditions were adjusted to secure equivalent levels of receptor expression for WT and mutants as previously described, [17], [19]. […] All the experiments were conducted within this range of receptor expression, if not specified differently.

WT human TP receptor [2] = target: T1, WT human TP receptor; test: Total inositol phosphate (IP) accumulation, WT receptor; assay type: cell-based; conditions: HEK293 cells, 30 min stimulation, value ±%CV
Experimental: as §1, §2

[3] = target: T2, double mutant E129V/E240V of human TP receptor (Homo sapiens, UniProt P21731, E129V/E240V); test: Total inositol phosphate (IP) accumulation, E129V/E240V double mutant, rescue with SQ29,548; assay type: cell-based; conditions: HEK293 cells, E129V/E240V double mutant after rescue with 1 µM SQ29,548 for 18 h; ±33%CV
T2 construct: expressed in transfected cells; host or cells: HEK293
T2 sequence (P21731 1-343 E129V/E240V): T1 sequence (P21731 1-343) with E129V, E240V
Experimental: Receptor expression and functional activity were monitored 48 hours after transfection. […] Heterologous competition studies involved concentrations of the indicated unlabeled ligands extending from 0.1 nM to 30 µM. After 30 min incubation at 25 °C, the reaction was stopped by aspiration of the medium, cells were washed with ice-cold PBS containing 0.2% (w/v) BSA and lysed in 0.5 N NaOH. Radioactivity was measured by liquid scintillation counting. Binding data were analyzed as described in Data and Statistical Analysis. Quantification of the total labeled inositol phosphates (IP) accumulation was performed using a conventional gravity flow column chromatography, as described previously, [19]. […] The total IP fraction was then eluted with 2 M ammonium formate/formic acid buffer at pH 5 and radioactivity determined by liquid scintillation counting. […]
All average results are presented as mean±S.E. When indicated, ANOVA followed by post-hoc test for multiple comparisons was performed. Data from radioligand binding were evaluated by a nonlinear, least-squares curve-fitting procedure using GraphPad Prism version 4, implemented with the n-ligand m-binding site model, as described in the LIGAND computer program. Concentration-response curves were evaluated using Prism 4, which use the four parameters logistic model as described in the ALLFIT program. […]

E240V mutant TP receptor = system: E240V mutant TP receptor; set-up: method as in PMID 20383734; conditions: E240V vs WT; cited from earlier work

- Ki (WT human TP receptor [1]): 170 ± 13 nM
- Emax, total IP (WT human TP receptor [2]; no Gαq overexpression): 12374±8 dpm/well
- EC50 (WT human TP receptor [2]): 98.7 ± 70 nM
- EC50 [3]: 1.66 nM
SMILES: CCCCC[C@H](O)/C=C/[C@@H]1[C@@H](C/C=C\CCCC(=O)O)[C@H]2CO[C@@H]1C2 (relative stereo) [U46619, [1R-[1α,4α,5β(Z),6α(1E,3S*)]]-7-[6-(3-hydroxy-1-octenyl)-2-oxabicyclo[2.2.1]hept-5-yl]-5-heptenoic acid]
- Fold lower EC50 than WT, total IP formation (E240V mutant TP receptor): 10 fold
